# Laboratory results published in patent US20250122218A1, “MODULATORS OF CYSTIC FIBROSIS TRANSMEMBRANE CONDUCTANCE REGULATOR” (Vertex Pharmaceuticals Incorporated, priority 2022, published 2025).
# Molecular target: T1, CFTR in F508del/MF-HBE cells (Homo sapiens, UniProt P13569, DEL508-508)
# T1 construct: human bronchial epithelial (HBE) cells derived from CF subjects heterozygous for F508del and a minimal function CFTR mutation; endogenous in cells; host or cells: primary human bronchial epithelial cells from CF subjects (F508del/MF-HBE)
# Experiment: Ussing chamber assay of CFTR-mediated short-circuit currents (identification of potentiator compounds)
# Format: cell-based
# Conditions: potentiator incubated 18-24 hours at 37° C. in combination with 10 μM corrector, in the presence of 20% human serum, CFTR-mediated ISC
# Method in brief: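 Short-circuit current was measured in Ussing chambers at 37° C, Vhold 0 mV, 30 μM apical amiloride. CFTR current was defined as the forskolin (20 μM) response relative to the current remaining after BPO/GlyH-101/inhibitor 172 (20 μM each). Before recording, cells had 18-24 h exposure to test potentiators with 10 μM corrector compound in 20% human serum.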
# T1 sequence (P13569 with tags, fused parts or gaps DEL508-508): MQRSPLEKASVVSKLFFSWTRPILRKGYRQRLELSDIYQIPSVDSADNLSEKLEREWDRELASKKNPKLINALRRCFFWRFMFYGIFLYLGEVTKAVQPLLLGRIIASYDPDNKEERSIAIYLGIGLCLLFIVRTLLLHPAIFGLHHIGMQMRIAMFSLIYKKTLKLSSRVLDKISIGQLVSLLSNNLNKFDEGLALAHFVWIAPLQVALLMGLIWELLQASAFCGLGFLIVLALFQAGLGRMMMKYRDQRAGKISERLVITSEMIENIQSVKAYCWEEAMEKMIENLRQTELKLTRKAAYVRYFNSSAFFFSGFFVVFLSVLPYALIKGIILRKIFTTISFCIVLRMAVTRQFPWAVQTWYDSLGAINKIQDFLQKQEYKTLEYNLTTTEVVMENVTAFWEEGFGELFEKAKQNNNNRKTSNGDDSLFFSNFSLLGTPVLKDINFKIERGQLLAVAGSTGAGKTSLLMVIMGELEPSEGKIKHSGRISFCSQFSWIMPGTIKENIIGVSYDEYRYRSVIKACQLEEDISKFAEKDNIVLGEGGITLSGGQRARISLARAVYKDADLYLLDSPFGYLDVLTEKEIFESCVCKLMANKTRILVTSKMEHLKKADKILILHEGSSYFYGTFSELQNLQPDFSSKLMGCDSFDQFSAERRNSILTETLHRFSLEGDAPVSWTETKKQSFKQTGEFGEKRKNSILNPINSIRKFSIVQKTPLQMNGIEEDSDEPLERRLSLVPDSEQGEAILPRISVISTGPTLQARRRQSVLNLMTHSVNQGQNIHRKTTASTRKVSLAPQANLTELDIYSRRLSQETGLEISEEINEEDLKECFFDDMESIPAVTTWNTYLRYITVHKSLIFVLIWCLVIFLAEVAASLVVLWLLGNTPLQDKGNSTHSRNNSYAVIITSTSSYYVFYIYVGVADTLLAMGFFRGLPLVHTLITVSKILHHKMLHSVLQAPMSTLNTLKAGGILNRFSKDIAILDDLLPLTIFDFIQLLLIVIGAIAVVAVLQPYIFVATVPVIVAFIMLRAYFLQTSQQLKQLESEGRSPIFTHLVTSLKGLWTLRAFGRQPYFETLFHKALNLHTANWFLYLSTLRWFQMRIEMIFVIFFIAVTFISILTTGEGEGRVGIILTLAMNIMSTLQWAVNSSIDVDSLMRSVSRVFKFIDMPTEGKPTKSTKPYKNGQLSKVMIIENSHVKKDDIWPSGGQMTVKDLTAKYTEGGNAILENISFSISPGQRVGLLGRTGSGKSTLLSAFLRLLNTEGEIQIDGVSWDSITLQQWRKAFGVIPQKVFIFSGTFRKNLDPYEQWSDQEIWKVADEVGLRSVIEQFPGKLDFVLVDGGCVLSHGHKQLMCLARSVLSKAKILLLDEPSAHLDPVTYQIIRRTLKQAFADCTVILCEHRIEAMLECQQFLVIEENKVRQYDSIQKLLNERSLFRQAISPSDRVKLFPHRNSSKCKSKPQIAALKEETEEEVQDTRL
row,Compound,EC50 [nM]
1,"CC(C)Oc1cccc(CN2CCCCC[C@](O)(C(F)(F)F)C3=NN=C(O3)c3nc(c(C(F)(F)F)cc3N)C2=O)c1 [Compound 172, (6R)-17-amino-6-hydroxy-12-[(3-isopropoxyphenyl)methyl]-6,15-bis (trifluoromethyl)-19-oxa-3,4,12,18-tetrazatricyclo [12.3.1.12,5] nonadeca-1(18),2,4,14,1 6-pentaen-13-one]",< 500
2,"Nc1cc(C(F)(F)F)c2nc1-c1nnc(o1)[C@@](O)(C(F)(F)F)CCCCCN(Cc1ccc(-c3ccccc3)cc1)C2=O [Compound 173, (6R)-17-amino-6-hydroxy-12-[(4-phenylphenyl)methyl]-6,15-bis (trifluoromethyl)-19-oxa-3,4,12,18-tetrazatricyclo [12.3.1.12,5] nonadeca-1(18),2,4,14,1 6-pentaen-13-one]",< 500
3,"COc1cc(F)cc(CN2CCCCC[C@](O)(C(F)(F)F)C3=NN=C(O3)c3nc(c(C(F)(F)F)cc3N)C2=O)c1 [Compound 176, (6R)-17-amino-12-[(3-fluoro-5-methoxy-phenyl)methyl]-6-hydroxy-6,5-bis (trifluoromethyl)-19-oxa-3,4,12,18-tetrazatricyclo [12.3.1.12,5] nonadeca-1(18),2,4,14,1 6-pentaen-13-one]",< 500
4,"Cc1cc(CN2CCCCC[C@](O)(C(F)(F)F)C3=NN=C(O3)c3nc(c(C(F)(F)F)cc3N)C2=O)cc(OC(F)(F)F)c1 [Compound 179, (6R)-17-amino-6-hydroxy-12-[[3-methyl-5-(trifluoromethoxy)phenyl]methyl]-6,15-bis (trifluoromethyl)-19-oxa-3,4,12,18-tetrazatricyclo [12.3.1.12,5] nonadeca-1(18),2,4,14,1 6-pentaen-13-one]",< 500
5,"Nc1cc(C(F)(F)F)c2nc1-c1nnc(o1)[C@@](O)(C(F)(F)F)CCCCCN(Cc1ccc(OCC(F)(F)F)cc1)C2=O [Compound 181, (6R)-17-amino-6-hydroxy-12-[[4-(2,2,2-trifluoroethoxy)phenyl]methyl]-6,15-bis (trifluoromethyl)-19-oxa-3,4,12,18-tetrazatricyclo [12.3.1.12,5] nonadeca-1(18),2,4,14,1 6-pentaen-13-one]",< 500
6,"Nc1cc(C(F)(F)F)c2nc1-c1nnc(o1)[C@@](O)(C(F)(F)F)CCCCCN(Cc1cccc(C(F)(F)F)c1)C2=O [Compound 182, (6R)-17-amino-6-hydroxy-6,15-bis (trifluoromethyl)-12-[[3-(trifluoromethyl)phenyl]methyl]-19-oxa-3,4,12,18-tetrazatricyclo [12.3.1.12,5] nonadeca-1(18),2,4,14,1 6-pentaen-13-one]",< 500
7,"C[C@H]1C[C@H](c2ccc(CN3CCCCC[C@](O)(C(F)(F)F)C4=NN=C(O4)c4nc(c(C(F)(F)F)cc4N)C3=O)cc2)C1 [Compound 183, (6R)-17-amino-6-hydroxy-12-({4-[trans-3-methylcyclobutyl]phenyl}methyl)-6,15-bis (trifluoromethyl)-19-oxa-3,4,12,18-tetraazatricyclo [12.3.1.12,5] nonadeca-1(18),2,4,14,1 6-pentaen-13-one]",< 500
8,"Nc1cc(C(F)(F)F)c2nc1-c1nnc(o1)[C@@](O)(C(F)(F)F)CCCCCN(Cc1cccc(N3CCCCC3)n1)C2=O [Compound 185, (6R)-17-amino-6-hydroxy-12-[[6-(1-piperidyl)-2-pyridyl]methyl]-6,15-bis (trifluoromethyl)-19-oxa-3,4,12,18-tetrazatricyclo [12.3.1.12,5] nonadeca-1(18),2,4,14,1 6-pentaen-13-one]",< 500
9,"Nc1cc(C(F)(F)F)c2nc1-c1nnc(o1)[C@@](O)(C(F)(F)F)CCCCCN(Cc1cccc(OCC(F)(F)F)c1)C2=O [Compound 186, (6R)-17-amino-6-hydroxy-12-[[3-(2,2,2-trifluoroethoxy)phenyl]methyl]-6,15-bis (trifluoromethyl)-19-oxa-3,4,12,18-tetrazatricyclo [12.3.1.12,5] nonadeca-1(18),2,4,14,1 6-pentaen-13-one]",< 500
10,"Nc1cc(C(F)(F)F)c2nc1-c1nnc(o1)[C@@](O)(C(F)(F)F)CCCCCN(Cc1ccc(N3CCCCC3)nc1)C2=O [Compound 187, (6R)-17-amino-6-hydroxy-12-[[6-(1-piperidyl)-3-pyridyl]methyl]-6,15-bis (trifluoromethyl)-19-oxa-3,4,12,18-tetrazatricyclo [12.3.1.12,5] nonadeca-1(18),2,4,14,1 6-pentaen-13-one]",< 500
11,"Nc1cc(C(F)(F)F)c2nc1-c1nnc(o1)[C@@](O)(C(F)(F)F)CCCCCNC2=O [Compound 188, (6R)-17-amino-6-hydroxy-6,15-bis(trifluoromethyl)-19-oxa-3,4,12,18-tetrazatricyclo[12.3.1.12,5]nonadeca-1(18),2,4,14,16-pentaen-13-one]",< 500
12,"Nc1cc(C(F)(F)F)c2nc1-c1nnc(o1)[C@](O)(C(F)(F)F)CCCCCNC2=O [Compound 189, (6S)-17-amino-6-hydroxy-6,15-bis(trifluoromethyl)-19-oxa-3,4,12,18-tetrazatricyclo[12.3.1.12,5]nonadeca-1(18),2,4,14,16-pentaen-13-one]",> 1000
13,"CC(=O)N1CC2(CC(N3CCCCC[C@](O)(C(F)(F)F)C4=NN=C(O4)c4nc(c(C(F)(F)F)cc4N)C3=O)C2)C1 [Compound 190, (6R)-12-(2-acetyl-2-azaspiro[3.3]heptan-6-yl)-17-amino-6-hydroxy-6,15-bis(trifluoromethyl)-19-oxa-3,4,12,18-tetrazatricyclo[12.3.1.12,5]nonadeca-1(18),2,4,14,16-pentaen-13-one]",> 1000
14,"NC[C@H]1CC[C@H](N2CCCCC[C@](O)(C(F)(F)F)C3=NN=C(O3)c3nc(c(C(F)(F)F)cc3N)C2=O)CC1 [Compound 192, (6R)-17-amino-6-hydroxy-12-[trans-4-(aminomethyl)cyclohexyl]-6,15-bis(trifluoromethyl)-19-oxa-3,4,12,18-tetraazatricyclo[12.3.1.12,5]nonadeca-1(18),2,4,14,16-pentaen-13-one]",> 1000

# Continued, values first:
row,EC50 [nM],Compound
1,< 500,"CC1(C)CCCC[C@](O)(C(F)(F)F)C2=NN=C(O2)c2nc(c(C(F)(F)F)cc2N)C(=O)N1 [Compound 174, (6R)-17-amino-6-hydroxy-11,11-dimethyl-6,15-bis (trifluoromethyl)-19-oxa-3,4,12,18-tetrazatricyclo [12.3.1.12,5] nonadeca-1(18),2,4,14,1 6-pentaen-13-one]"
2,< 500,"COc1ccc(CN2CCCCC[C@](O)(C(F)(F)F)C3=NN=C(O3)c3nc(c(C(F)(F)F)cc3N)C2=O)c(F)c1F [Compound 175, (6R)-17-amino-12-[(2,3-difluoro-4-methoxy-phenyl)methyl]-6-hydroxy-6,15-bis (trifluoromethyl)-19-oxa-3,4,12,18-tetrazatricyclo [12.3.1.12,5] nonadeca-1(18),2,4,14,1 6-pentaen-13-one]"
3,< 500,"COc1ccc(CN2CCCCC[C@](O)(C(F)(F)F)C3=NN=C(O3)c3nc(c(C(F)(F)F)cc3N)C2=O)c(F)c1 [Compound 177, (6R)-17-amino-12-[(2-fluoro-4-methoxy-phenyl)methyl]-6-hydroxy-6,15-bis (trifluorom ethyl)-19-oxa-3,4,12,18-tetrazatricyclo [12.3.1.12,5] nonadeca-1(18),2,4,14,1 6-pentaen-13-one]"
4,< 500,"Nc1cc(C(F)(F)F)c2nc1-c1nnc(o1)[C@@](O)(C(F)(F)F)CCCCCN(Cc1cc(Cl)cc(OC(F)(F)F)c1)C2=O [Compound 178, (6R)-17-amino-12-[[3-chloro-5-(trifluoromethoxy)phenyl]methyl]-6-hydroxy-6,15-bis (trifluoromethyl)-19-oxa-3,4,12,18-tetrazatricyclo [12.3.1.12,5] nonadeca-1(18),2,4,14,1 6-pentaen-13-one]"
5,< 500,"Cc1c(CN2CCCCC[C@](O)(C(F)(F)F)C3=NN=C(O3)c3nc(c(C(F)(F)F)cc3N)C2=O)cccc1OC(F)(F)F [Compound 180, (6R)-17-amino-6-hydroxy-12-[[2-methyl-3-(trifluoromethoxy)phenyl]methyl]-6,15-bis(trifluoromethyl)-19-oxa-3,4,12,18-tetrazatricyclo [12.3.1.12,5] nonadeca-1(18),2,4,14,1 6-pentaen-13-one]"
6,< 500,"CC(C)(C)c1cccc(CN2CCCCC[C@](O)(C(F)(F)F)C3=NN=C(O3)c3nc(c(C(F)(F)F)cc3N)C2=O)n1 [Compound 184, (6R)-17-amino-12-[(6-tert-butyl-2-pyridyl)methyl]-6-hydroxy-6,15-bis (trifluoromethyl)-19-oxa-3,4,12,18-tetrazatricyclo [12.3.1.12,5] nonadeca-1(18),2,4,14,1 6-pentaen-13-one]"
7,> 1000,"Nc1cc(C(F)(F)F)c2nc1-c1nnc(o1)[C@@](O)(C(F)(F)F)CCCCCN(C1CC3(C1)CN(C(=O)C1CC1)C3)C2=O [Compound 191, (6R)-17-amino-12-[2-(cyclopropanecarbonyl)-2-azaspiro[3.3]heptan-6-yl]-6-hydroxy-6,15-bis(trifluoromethyl)-19-oxa-3,4,12,18-tetrazatricyclo[12.3.1.12,5]nonadeca-1(18),2,4,14,16-pentaen-13-one]"
8,< 500,"N#C[C@H]1CC[C@H](N2CCCCC[C@](O)(C(F)(F)F)C3=NN=C(O3)c3nc(c(C(F)(F)F)cc3N)C2=O)CC1 [Compound 193, trans-4-[(6R)-17-amino-6-hydroxy-13-oxo-6,15-bis(trifluoromethyl)-19-oxa-3,4,12,18-tetraazatricyclo[12.3.1.12,5]nonadeca-1(18),2,4,14,16-pentaen-12-yl]cyclohexane-1-carbonitrile]"
